Consider 25 compounds from patent US8362012B2, “Benzoxazine benzimidazole derivative, a pharmaceutical composition comprising the same, and a use thereof” (Daewoong Pharmaceutical Co., Ltd., priority 2008, dated 2013).

T1 sequence (Q8NER1 whole entry): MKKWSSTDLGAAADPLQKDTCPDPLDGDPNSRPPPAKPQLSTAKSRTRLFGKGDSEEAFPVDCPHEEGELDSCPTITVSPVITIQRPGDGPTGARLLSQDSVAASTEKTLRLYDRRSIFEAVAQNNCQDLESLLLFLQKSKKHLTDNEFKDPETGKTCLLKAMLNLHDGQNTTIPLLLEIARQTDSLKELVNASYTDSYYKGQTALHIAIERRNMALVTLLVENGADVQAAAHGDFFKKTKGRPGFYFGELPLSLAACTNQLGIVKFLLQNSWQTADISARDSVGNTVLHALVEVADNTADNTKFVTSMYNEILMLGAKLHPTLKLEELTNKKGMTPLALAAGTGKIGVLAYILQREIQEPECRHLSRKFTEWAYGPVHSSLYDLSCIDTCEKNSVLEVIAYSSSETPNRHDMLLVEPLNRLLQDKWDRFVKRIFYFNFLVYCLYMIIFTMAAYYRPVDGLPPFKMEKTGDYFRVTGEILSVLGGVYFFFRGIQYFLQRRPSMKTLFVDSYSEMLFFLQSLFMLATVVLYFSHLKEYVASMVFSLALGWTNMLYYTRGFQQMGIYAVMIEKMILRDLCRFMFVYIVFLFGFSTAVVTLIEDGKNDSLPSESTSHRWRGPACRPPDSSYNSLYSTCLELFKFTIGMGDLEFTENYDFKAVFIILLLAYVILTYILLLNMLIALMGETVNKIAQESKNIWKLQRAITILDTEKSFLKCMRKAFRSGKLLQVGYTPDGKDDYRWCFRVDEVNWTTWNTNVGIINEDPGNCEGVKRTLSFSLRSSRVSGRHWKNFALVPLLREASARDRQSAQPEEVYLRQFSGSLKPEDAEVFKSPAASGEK

One test has as its target T1, human vanilloid-1 (hVR-1) in hVR-1-HEK293 cell line (Homo sapiens, UniProt Q8NER1).
T1 construct: expressed in transfected cells; host or cells: HEK293 Tet-on strain, doxycycline-induced
The test is described as follows: Inhibitory effect on calcium influx via a vanilloid receptor (capsaicin-stimulated, Fluo-3/AM). As to conditions: hVR-1-HEK293 cells, 1 μM of capsaicin, compounds 0.015˜2000 nM; read-out: I.A. (inhibitory activity), IC50 on intracellular calcium influx. Type of test: cell-based. Here is the method:
The cell line can modulate the expression of VR-1, depending on whether doxycycline, a derivative of tetracycline, is present or not. […] Specifically, hVR-1-HEK293 cells were cultured in a T75 flask to about 80% confluency, separated from the flask by treating with trypsin solution, and then collected by centrifugation. The cells were suspended in a medium containing 1 μg/mL of doxycycline, and the resulting suspension was diluted to a concentration of 2˜4×10^5 cells/mL […], of the cell suspension was placed in each well of a 96-well black plate. The cells were cultured in 5% CO2 incubator at 37° C. for 2 days, and used for the following procedure. […] The cells prepared in 1) above were cultured at 37° C. for 90 min in a solution containing Fluo-3/AM, a fluorescent dye, as a calcium indicator so that the fluorescent dye was permeated into the cells. […] In order to stimulate calcium influx through a vanilloid receptor, the cells were treated with 1 μM of capsaicin. […] The obtained data were input to the Hill equation represented by the following formula I and the values were analyzed: Intracellular calcium influx= [(fluorescent intensity of experimental group−fluorescent intensity of background)/(fluorescent intensity of positive control−fluorescent intensity of background)]*100 [Formula I] The inhibitory activities were evaluated from the obtained intracellular calcium influx values according to the following criteria.
For orientation: Calcium assays in cells follow changes in intracellular calcium, usually with a dye or a luminescent sensor.
Broadly, the IC50 is the concentration at which inhibition is half-maximal. As to `COC[C@H]1COc2c(-c3nc4ccc(C)c(C)c4[nH]3)cccc2N1c1ccc(C)cn1` [Example 100, (S)-8-(6,7-dimethyl-1H-benzimidazol-2-yl)-3-methoxymethyl-4-(5-methyl-pyridin-2-yl)-3,4-dihydro-2H-benzo[1,4]oxazine], the IC50 lay in the range of 20 to 100 nM. As to `CCc1ccc(N2c3cccc(-c4nc5cc(F)c(F)cc5[nH]4)c3OC[C@@H]2CO)nc1` [Example 83, [(S)-8-(5,6-difluoro-1H-benzimidazol-2-yl)-4-(5-ethyl-pyridin-2-yl)-3,4-dihydro-2H-benzo[1,4]oxazin-3-yl]-methanol], the IC50 lay in the range of 20 to 100 nM. Consider `COC[C@H]1COc2c(-c3nc4ccccc4[nH]3)cccc2N1c1ccc(C)cn1` [Example 110, (S)-8-(1H-benzo[d]imidazol-2-yl)-3-(methoxymethyl)-4-(5-methyl-pyridin-2-yl)-3,4-dihydro-2H-benzo[b][1,4]oxazine], for which the IC50 lay in the range of 101 to 500 nM. Regarding `CC(C)(C)c1ccc2[nH]c(-c3cccc4c3OCCN4c3ncc(Cl)cc3Cl)nc2c1` [Example 11, 8-(5-tert-butyl-1H-benzimidazol-2-yl)-4-(3,5-dichloro-pyridin-2-yl)-3,4-dihydro-2H-benzo[1,4]oxazine], the IC50 lay within 20 to 100 nM. With `Cc1ccc(N2CCOc3c(-c4nc5cc(C(C)(C)C)ccc5[nH]4)cccc32)nc1` [Example 10, 8-(5-tert-butyl-1H-benzimidazol-2-yl)-4-(5-methyl-pyridin-2-yl)-3,4-dihydro-2H-benzo[1,4]oxazine], the half-inhibitory concentration (IC50) was less than 20 nM. Consider `FC(F)(F)c1ccc2nc(-c3cccc4c3OCCN4c3ncccc3C(F)(F)F)[nH]c2c1` [Example 17, 8-(6-trifluoromethyl-1H-benzimidazol-2-yl)-4-(3-trifluoromethyl-pyridin-2-yl)-3,4-dihydro-2H-benzo[1,4]oxazine], for which the IC50 was greater than 1000 nM.

Regarding `Cc1ccc(N2CCOc3c(-c4nc5ccc(Br)cc5[nH]4)cccc32)nc1` [Example 26, 8-(6-bromo-1H-benzimidazol-2-yl)-4-(5-methyl-pyridin-2-yl)-3,4-dihydro-2H-benzo[1,4]oxazine], the 50% inhibitory concentration (IC50) was in the range of 101 to 500 nM.

As for `C=Cc1ccc(N2c3cccc(-c4nc5ccc(OC)cc5[nH]4)c3OC[C@@H]2CO)nc1` [Example 72, (S)-(8-(6-methoxy-1H-benzo[d]imidazol-2-yl)-4-(5-vinyl-pyridin-2-yl)-3,4-dihydro-2H-benzo[b][1,4]oxazin-3-yl)methanol], the IC50 lay in the range of 501 to 1000 nM.

Consider `C=Cc1ccc(N2c3cccc(-c4nc5c(C)c(C)ccc5[nH]4)c3OC[C@@H]2CO)nc1` [Example 77, (S)-(8-(4,5-dimethyl-1H-benzo[d]imidazol-2-yl)-4-(5-vinyl-pyridin-2-yl)-3,4-dihydro-2H-benzo[b][1,4]oxazin-3-yl)methanol], for which the half-inhibitory concentration (IC50) was in the range of 20 to 100 nM. On the same count and under the same terms, to `CC(C)(C)c1ccc2nc(-c3cccc4c3OCCN4c3ncc(C(F)(F)F)cc3Cl)[nH]c2c1` [Example 9, 8-(6-tert-butyl-1H-benzimidazol-2-yl)-4-(3-chloro-5-trifluoromethyl-pyridin-2-yl)-3,4-dihydro-2H-benzo[1,4]oxazine] belongs 101 to 500 nM; to `C=Cc1ccc(N2c3cccc(-c4nc5ccc(C#N)cc5[nH]4)c3OC[C@@H]2CO)nc1` [Example 73, (S)-2-(3-(hydroxymethyl)-4-(5-vinyl-pyridin-2-yl)-3,4-dihydro-2H-benzo[b][1,4]oxazin-8-yl)-1H-benzo[d]imidazol-6-carbonitrile], 101 to 500 nM.

As to `C=Cc1ccc(N2c3cccc(-c4nc5c(Cl)cc(C(F)(F)F)cc5[nH]4)c3OC[C@@H]2CO)nc1` [Example 65, [(S)-8-(4-chloro-6-trifluoromethyl-1H-benzimidazol-2-yl)-4-(5-vinyl-pyridin-2-yl)-3,4-dihydro-2H-benzo[1,4]oxazin-3-yl]-methanol], the IC50 is less than 20 nM. On the same count and under the same terms, to `COC[C@H]1COc2c(-c3nc4cc(C)ccc4[nH]3)cccc2N1c1ccc(C)cn1` [Example 109, (S)-3-(methoxymethyl)-8-(5-methyl-1H-benzo[d]imidazol-2-yl)-4-(5-methyl-pyridin-2-yl)-3,4-dihydro-2H-benzo[b][1,4]oxazine] belongs 101 to 500 nM; to `C=Cc1ccc(N2c3cccc(-c4nc5ccc(F)cc5[nH]4)c3OC[C@@H]2CO)nc1` [Example 61, [(S)-8-(6-fluoro-1H-benzimidazol-2-yl)-4-(5-vinyl-pyridin-2-yl)-3,4-dihydro-2H-benzo[1,4]oxazin-3-yl]-methanol], 20 to 100 nM.

For `Cc1ccc(N2c3cccc(-c4nc5c(Br)cc(OC(F)(F)F)cc5[nH]4)c3OC[C@@H]2CO)nc1` [Example 54, [(S)-8-(4-bromo-6-trifluoromethoxy-1H-benzimidazol-2-yl)-4-(5-methyl-pyridine-2-yl)-3,4-dihydro-2H-benzo[1,4]oxazin-3-yl]-methanol], the concentration for half-maximal inhibition (IC50) was less than 20 nM. Still for that read-out and setting: to `Clc1ccc2nc(-c3cccc4c3OCCN4c3ncccc3Cl)[nH]c2c1` [Example 22, 8-(6-chloro-1H-benzimidazol-2-yl)-4-(3-chloro-pyridin-2-yl)-3,4-dihydro-2H-benzo[1,4]oxazine] belongs greater than 1000 nM; to `Cc1ccc(N2CCOc3c(-c4nc5c(C(F)(F)F)cc(C(F)(F)F)cc5[nH]4)cccc32)nc1` [Example 30, 8-(4,6-bis-trifluoromethyl-1H-benzimidazol-2-yl)-4-(5-methyl-pyridin-2-yl)-3,4-dihydro-2H-benzo[1,4]oxazine], 101 to 500 nM; to `C=Cc1ccc(N2c3cccc(-c4nc5ccc(C(C)(C)C)cc5[nH]4)c3OC[C@@H]2CO)nc1` [Example 57, [(S)-8-(6-tert-butyl-1H-benzimidazol-2-yl)-4-(5-vinyl-pyridin-2-yl)-3,4-dihydro-2H-benzo[1,4]oxazin-3-yl]-methanol], 20 to 100 nM. Still for that read-out and setting: with `C=Cc1ccc(N2c3cccc(-c4nc5c(F)cc(F)cc5[nH]4)c3OC[C@@H]2CO)nc1` [Example 63, [(S)-8-(4,6-difluoro-1H-benzimidazol-2-yl)-4-(5-vinyl-pyridin-2-yl)-3,4-dihydro-2H-benzo[1,4]oxazin-3-yl]-methanol] the figure was 20 to 100 nM. As to `Cc1ccc(N2CCOc3c(-c4nc5cc(Cl)ccc5[nH]4)cccc32)nc1` [Example 27, 8-(5-chloro-1H-benzimidazol-2-yl)-4-(5-methyl-pyridin-2-yl)-3,4-dihydro-2H-benzo[1,4]oxazine], the IC50 lay within 101 to 500 nM. Consider `COC[C@H]1COc2c(-c3nc4c(Br)cc(OC(F)(F)F)cc4[nH]3)cccc2N1c1ccc(C)cn1` [Example 105, (S)-8-(4-bromo-6-trifluoromethoxy-1H-benzimidazol-2-yl)-3-methoxymethyl-4-(5-methyl-pyridin-2-yl)-3,4-dihydro-2H-benzo[1,4]oxazine], for which the IC50 is less than 20 nM. On the same count and under the same terms, to `C=Cc1ccc(N2c3cccc(-c4nc5cc(F)c(Cl)cc5[nH]4)c3OC[C@@H]2CO)nc1` [Example 70, [(S)-8-(6-chloro-5-fluoro-1H-benzimidazol-2-yl)-4-(5-vinyl-pyridin-2-yl)-3,4-dihydro-2H-benzo[1,4]oxazin-3-yl]-methanol] belongs 20 to 100 nM; to `Cc1ccc(N2c3cccc(-c4nc5ccc(C#N)cc5[nH]4)c3OC[C@@H]2CO)nc1` [Example 56, (S)-2-(3-(hydroxymethyl)-4-(5-methyl-pyridin-2-yl)-3,4-dihydro-2H-benzo[b][1,4]oxazin-8-yl)-1H-benzo[d]imidazol-6-carbonitrile], 101 to 500 nM. Still for that read-out and setting: with `C=Cc1ccc(N2c3cccc(-c4nc5c(C(F)(F)F)cc(C(F)(F)F)cc5[nH]4)c3OC[C@@H]2CO)nc1` [Example 71, ((S)-8-(4,6-bis(trifluoromethyl)-1H-benzo[d]imidazol-2-yl)-4-(5-vinyl-pyridin-2-yl)-3,4-dihydro-2H-benzo[b][1,4]oxazin-3-yl)-methanol] the figure was 101 to 500 nM.

The test system of another test is ICR male mice. The test is described as follows: Phenyl-p-quinone (PBQ)-induced writhing experiment using mice. The conditions noted are these: orally administered, PBQ (0.02%) intraperitoneally after 1 hour. The test is classed as in vivo. Here is the method: In order to evaluate the effect on pain of the compounds prepared in the Examples, behaviors such as twisting or writhing of body resulted from pain were verified by the phenyl-p-quinone (PBQ)-induced writhing experiment using mice. 5 week-old ICR male mice were used as experimental animals and PBQ (0.02%), as a chemical stimulator. The suspensions of 20 mg of the compounds of the present invention and an excipient such as Na—CMC (sodium carboxymethyl cellulose) in 10 mL of saline were used as test compounds. The test compounds were orally administered to the mice and after 1 hour, PBQ was intraperitoneally administrated in an amount of 10 mL per kg of body weight. Also, as a control group, equivalent amounts of BCTC were administered. The writhing number of each mouse was measured for 10 min starting from 5 min after the administration, and the analgesic effect was verified by counting the reduced number compared to the control group administered with only excipient and calculating the % inhibitory rate according to the following Formula 2. % inhibition rate=(writhing # of control group−writhing # of test group)/writhing # of control group×100 [Formula 2]
(In general: In writhing tests, fewer writhes than in controls are read as antinociception.)
In the case of “N-(4-tert-butylphenyl)-4-(3-chloropyridin-2-yl)piperazin-1-carboxyamide [BCTC, reference compound]”, the “% inhibition rate of writhing” value is 33%.

The same test, now with this note: orally administered, PBQ (0.02%) intraperitoneally after 1 hour, writhing counted for 10 min.
In the case of `COC[C@H]1COc2c(-c3nc4ccc(C)c(C)c4[nH]3)cccc2N1c1ccc(C)cn1` [Example 100, (S)-8-(6,7-dimethyl-1H-benzimidazol-2-yl)-3-methoxymethyl-4-(5-methyl-pyridin-2-yl)-3,4-dihydro-2H-benzo[1,4]oxazine], the “I.A. (inhibitory activity), % inhibition rate of writhing” value is “++ (20˜50%)”. On to “N-(4-tert-butylphenyl)-4-(3-chloropyridin-2-yl)piperazin-1-carboxyamide [BCTC, reference compound]”, for which the “I.A. (inhibitory activity), % inhibition rate of writhing” value is “++ (20˜50%)”.
